Ends that are not written are not given here.

From US9023987B2, “Cell-permeable peptide” (Seoul National University R&DB Foundation, priority 2010, dated 2015) come the findings set out here.

Data set [1] concerns human mesenchymal stem cells (hMSC). Nature of the data set: Cytotoxicity / cell proliferation by quantitative BrdU assay. The data set is classed as cell-based. Also noted: dose or concentration left out as unconfirmed. The note with it: 24, 48, and 72 hours, FIG. 6. The procedure: In order to confirm whether or not cell proliferation is affected by potential toxicity when the cell permeable peptide-bone differentiation inducing sequence conjugate and control domains are cultured with hMSC, a degree of cell proliferation was analysis by ELISA using BrdU. Since BrdU was introduced in chromosome instead of deoxy thymidine triphosphate (dTTP) at the time of DNA replication during a proliferation process of hMSC, a degree of introduction of BrdU may reflect a degree of proliferation of hMSC.
First, After 1×10^3 human Mesenchymal Stem cells (hMSC) were plated into each well of 96-well plate, the degree of introduction of BrdU, that is, the degree of proliferation of hMSC was measured using a cell proliferation ELISA kit (BrdU (colorimetry); Boehringermanheim, Germany). Simply describing this method, the cells were treated with the cell permeable peptide-bone differentiation inducing sequence conjugate synthesized by the method in Example 1 and the domains of Example 2 at a concentration of […] and cultured in medium for forming hard tissue for 24, 48, and 72 hours. […] of BrdU (5-bromo-2′-deoxyuridine) was added to each of the groups before 24 hours of each culture time and further cultured for 24 hours. […] The reaction was terminated by 1N H2SO4, and then absorbance was measured using the ELISA reader (Bio-Tek, USA) at 450 nm.
A general note: Uptake of a labelled nucleoside into DNA is a usual measure of proliferation.

Data set [2] has the same test system. Nature of the data set: Cytotoxicity by MTT assay. The note with it: 24, 48, and 72 hours, FIG. 5. The data set is classed as cell-based. Also noted: dose or concentration left out as unconfirmed. The procedure: In order to confirm whether or not cell proliferation is affected by potential toxicity when the cell permeable peptide-bone differentiation inducing sequence conjugate and control domains are cultured with hMSC, a 3-[4,5-dimethylthiazo-2-yl]-2,5-diphenyl tetrazolium bromide thiazolyl blue (MTT) assay method was used.
The MTT assay method is a method for measuring cytotoxicity by measuring absorbance of formazan produced as mitochondrial dehydrogenases in alive and metabolically active cells reduces MTT to indicate the absorbance as a percentage based on the control group. In this case, the measured absorbance reflects a concentration of the alive and metabolically active cells. 2,3,5-triphenyl tetrazolium chloride (TTC) is reduced to formazan in live cells. The formazan is insoluble purple color, and a respiration rate may be measured by a degree of color. The absorbance of formazan is maximal at 540 nm, and the absorbance measured at this wavelength reflects the concentration of the alive and metabolically active cells. Since a linear relationship between the absorbance and the concentration of the cells is not established when a concentration of cells in well to be measured is excessively high or low, a process of determining an optimal concentration of the cells was performed. […]
(Formazan colour is commonly taken as a measure of viable cells.)

Data set [3] deals with T1, human-derived Smurf1 protein (Homo sapiens, UniProt Q9HCE7).
T1 construct: purchased Origene Technologies (Rockville, Md., USA)
Kind of data set: Affinity to Smurf1 by surface plasmon resonance (BIACORE T100). The data set is classed as binding. The note with it: 10 mM analyte over Smurf1 coupled to CM5 chip; FIG. 2A. The method, then: In order to confirm the affinity between cell permeable peptide-bone differentiation inducing sequence conjugate and Smurf1 by a chemical method, a human-derived Smurf1 protein acting as a ligand in the present experiment was purchased from Origene Technologies (Rockville, Md., USA). The protein ([…]) was coupled to a gold coated surface of a CM5 chip (BIACORE AB, Sweden) on which amino groups are bounded using an EDC/NHS kit (BIACORE AB, Sweden). (Instead of this experimental method, ‘Immobilization’ integrated into the BIACORE® T100 (BIACORE AB, Sweden) software used by the present inventors may be used). In this case, in order to find a suitable pH condition at which the protein may bind to the amino group in the CM5 chip, a method called ‘pH scouting’ was performed, thereby finding a pH condition. As a method of ‘pH scouting’, a method integrated in the BIACORE® T100 (BIACORE AB, Sweden) software used by the present inventors may be used. […]
A general note: SPR reads the build-up and loss of mass on a sensor chip optically.

The subject of data set [4] is human mesenchymal stem cells (hMSC). Kind of data set: Cell permeability by fluorescence imaging (confocal scanning microscope). Type of data set: cell-based. To be noted: FITC/fluorescence-labeled, FIG. 3A, FIG. 7. The procedure:
The domains synthesized in Example 1 and Comparative Examples 1 and 2 were labeled with a fluorescent material in order to measure cell permeability. 10 equivalents of fluorescein isothiocyanate (FITC) was bound to N-terminals of the synthesized domains by using triethylamine (1 ml per 1 g of resin). The synthesis of the peptide was confirmed by measuring the molecular weight thereof through MALDI-TOF.
In order to measure the cell permeability of the cell permeable peptide-bone differentiation inducing sequence conjugate, after sterile slide glass was input in a 6-well plate and 2×10^4 human mesenchymal stem cells (hMSC) were plated in each well, the cells were cultured in a general medium for 20 hours (overnight incubation). Then the cells was cultured in an hMSC basal medium (MSCBM, LONZA, USA) containing 0.5% fetal bovine serum (FBS, GIBCO, USA) for 20 hours (overnight starvation). […] fluorescence labeled cell permeable peptide-bone differentiation inducing sequence conjugate and […] fluorescence labeled bone differentiation inducing sequence that were obtained by binding FITC (SIGMA, USA) N-terminals of the cell permeable peptide-bone differentiation inducing sequence conjugate synthesized by the method in Example 1 and the domain in Comparative Example 2 to synthesize the fluorescence label conjugate and fluorescence label domain, followed by isolation and purification, were injected into each well and washed with phosphate buffer solution (PBS) two times after 20 minutes and 80 minutes of injection. The resultants was observed using a confocal scanning microscope (IX 70, Olympus Co., Tokyo, Japan).

T1 sequence (Q9HCE7 whole entry): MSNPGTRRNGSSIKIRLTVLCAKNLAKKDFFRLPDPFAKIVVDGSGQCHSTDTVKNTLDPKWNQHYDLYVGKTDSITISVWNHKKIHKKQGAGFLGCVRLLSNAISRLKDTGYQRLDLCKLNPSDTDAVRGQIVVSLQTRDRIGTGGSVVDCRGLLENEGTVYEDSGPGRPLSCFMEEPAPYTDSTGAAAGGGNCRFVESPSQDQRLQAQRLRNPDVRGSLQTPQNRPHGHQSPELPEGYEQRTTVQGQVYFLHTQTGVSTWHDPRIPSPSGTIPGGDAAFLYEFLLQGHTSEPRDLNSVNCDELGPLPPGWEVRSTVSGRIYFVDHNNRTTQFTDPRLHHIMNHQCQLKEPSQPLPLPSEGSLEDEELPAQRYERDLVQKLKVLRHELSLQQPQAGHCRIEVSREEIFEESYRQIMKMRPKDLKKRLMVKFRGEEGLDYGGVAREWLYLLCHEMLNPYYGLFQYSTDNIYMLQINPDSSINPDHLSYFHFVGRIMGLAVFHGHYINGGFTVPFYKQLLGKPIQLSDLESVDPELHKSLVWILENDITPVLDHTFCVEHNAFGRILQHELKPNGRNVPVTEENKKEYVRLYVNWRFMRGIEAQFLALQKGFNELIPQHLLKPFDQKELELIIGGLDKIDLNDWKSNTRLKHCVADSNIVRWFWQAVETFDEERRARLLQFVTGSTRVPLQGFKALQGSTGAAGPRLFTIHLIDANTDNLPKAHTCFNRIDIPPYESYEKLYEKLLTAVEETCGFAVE

On to “GAPPPADSAP-NH2 [Comparative Example 2, GAPPPADSAP, reference compound]”, for which, in data set [1], the “effect on cell proliferation (BrdU, DNA synthesis ability compared with PBS)” value is on record as “did not affect the cell proliferation”. Further, in data set [2], the “cytotoxicity (MTT, cell proliferation ability compared with PBS)” value was “did not exhibit cytotoxicity”.

On to “SSRKKNPNCRRH (H4S) [Comparative Example 1]”, for which the “affinity to Smurf1” value in data set [3] amounted to 100 RU. In data set [4], the “intracellular fluorescence after 20 minutes (confocal)” value is “fluorescent materials uniformly present in cytoplasm were observed” and the “intracellular fluorescence after 80 minutes (confocal)” value is “fluorescent materials densely present up to in nucleus were confirmed”.

As to YGRKKRRQRRR [TAT, reference compound], in data set [4], the “intracellular fluorescence after 20 minutes (confocal)” value is recorded as “fluorescent materials uniformly present in cytoplasm were observed” and the “intracellular fluorescence after 80 minutes (confocal)” value is given as “fluorescent materials densely present up to in nucleus were confirmed”.
